Assay [1] has as its system DOHH2 cells. Put plainly: Cell proliferation assay (MTS), DOHH2 cells, 120 h. The class given is cell-based. Conditions: Homo sapiens, DOHH-2, 120 h. An outline of the steps: (§1)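 RS4;11 and DOHH2 cells at 5000 cells/well in RPMI-1640 with 10% FBS were treated with compound at 1.5–10000 nM final, nine points, at 37 °C, 5% CO2. Exposure was 72 h for RS4;11 and 120 h for DOHH2. MTS was added for 2 h, absorbance read at 490/650 nm, and IC50 calculated.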

The test system of assay [2] is RS4;11 cells. Put plainly: Cell proliferation assay (MTS), RS4;11 cells, 72 h. The class given is cell-based. Conditions: Homo sapiens, RS4-11, 72 h. An outline of the steps:
as §1

For the compound `CC1(C)CCC(CN2CCN(c3ccc(C(=O)NS(=O)(=O)c4cc5c(c([N+](=O)[O-])c4)N[C@@H](CCN4CCS(=O)(=O)CC4)CO5)c(Oc4cnc5[nH]ccc5c4)c3)CC2)=C(c2ccc(Cl)cc2)C1` [Example 2-153, (S)-2-((1H-pyrrolo[2,3-b]pyridin-5-yl)oxy)-4-(4-((4′-chloro-5,5-dimethyl-3,4,5,6-tetra-hydro-[1,1′-biphenyl]-2-yl)methyl)piperazin-1-yl)-N-((3-(2-(1,1-dioxidothiomorpholino)ethyl)-5-nitro-3,4-dihydro-2H-benzo[b] [1,4]oxazin-7-yl)sulfonyl)benzamide], the values for the IC50 in assay [1] and in assay [2] were 8 nM and 1 nM, respectively.
On the same counts, the results for `CC1(C)CCC(CN2CCN(c3ccc(C(=O)NS(=O)(=O)c4cc5c(c([N+](=O)[O-])c4)N[C@H](CN4CCP(C)(=O)CC4)CO5)c(Oc4cnc5[nH]ccc5c4)c3)CC2)=C(c2ccc(Cl)cc2)C1` [Example 2-154, (R)-2-((1H-pyrrolo[2,3-b]pyridin-5-yl)oxy)-4-(4-((4′-chloro-5,5-dimethyl-3,4,5,6-tetra-hydro-[1,1′-biphenyl]-2-yl)methyl)piperazin-1-yl)-N-((3-((4-methyl-4-oxido-1,4-aza-phosphinan-1-yl)methyl)-5-nitro-3,4-dihydro-2H-benzo[b][1,4]oxazin-7-yl)sulfonyl) benzamide] are 201 nM and 24 nM.
For the compound `CC1(C)CCC(CN2CCN(c3ccc(C(=O)NS(=O)(=O)c4cc5c(c([N+](=O)[O-])c4)N[C@H](CCN4CCP(C)(=O)CC4)CO5)c(Oc4cnc5[nH]ccc5c4)c3)CC2)=C(c2ccc(Cl)cc2)C1` [Example 2-155, (R)-2-((1H-pyrrolo[2,3-b]pyridin-5-yl)oxy)-4-(4-((4′-chloro-5,5-dimethyl-3,4,5,6-tetra-hydro-[1,1′-biphenyl]-2-yl)methyl)piperazin-1-yl)-N-((3-(2-(4-methyl-4-oxido-1,4-aza-phosphinan-1-yl)ethyl)-5-nitro-3,4-dihydro-2H-benzo[b][1,4]oxazin-7-yl)sulfonyl) benzamide], the IC50 in assay [1] is 459 nM; in assay [2], 66 nM.
For `CC1(C)CCC(CN2CCN(c3ccc(C(=O)NS(=O)(=O)c4cc5c(c([N+](=O)[O-])c4)N[C@H](Cc4ccccc4)CO5)c(Oc4cnc5[nH]ccc5c4)c3)CC2)=C(c2ccc(Cl)cc2)C1` [Example 2-156, (R)-2-((1H-pyrrolo[2,3-b]pyridin-5-yl)oxy)-N-((3-benzyl-5-nitro-3,4-dihdyro-2H-benzo[b][1,4]oxazin-7-yl)sulfonyl)-4-(4-((4′-chloro-5,5-dimethyl-3,4,5,6-tetrahydro-[1,1′-biphenyl]-2-yl)methyl)piperazin-1-yl)benza-mide], in that order: 6 nM and 19 nM.
On the same counts, the results for `CC1(C)CCC(CN2CCN(c3ccc(C(=O)NS(=O)(=O)c4cc5c(c([N+](=O)[O-])c4)N[C@H](Cc4ccccc4F)CO5)c(Oc4cnc5[nH]ccc5c4)c3)CC2)=C(c2ccc(Cl)cc2)C1` [Example 2-157, (R)-2-((1H-pyrrolo[2,3-b]pyridin-5-yl)oxy)-4-(4-((4′-chloro-5,5-dimethyl-3,4,5,6-tetra-hydro-[1,1′-biphenyl]-2-yl)methyl)piperazin-1-yl)-N-((3-(2-fluorobenzyl)-5-nitro-3,4-dihydro-2H-benzo[b][1,4]oxazin-7-yl)sulfo-nyl)benzamide] are 39 nM and 10 nM.
For `CC1(C)CCC(CN2CCN(c3ccc(C(=O)NS(=O)(=O)c4cc5c(c([N+](=O)[O-])c4)N[C@H](Cc4ccc(F)cc4)CO5)c(Oc4cnc5[nH]ccc5c4)c3)CC2)=C(c2ccc(Cl)cc2)C1` [Example 2-158, (R)-2-((1H-pyrrolo[2,3-b]pyridin-5-yl)oxy)-4-(4-((4′-chloro-5,5-dimethyl-3,4,5,6-tetra-hydro-[1,1′-biphenyl]-2-yl)methyl)piperazin-1-yl)-N-((3-(4-fluorobenzyl)-5-nitro-3,4-dihydro-2H-benzo[b][1,4]oxazin-7-yl)sulfo-nyl)benzamide], in that order: 135 nM and 43 nM.
In the case of `CC1(C)CCC(CN2CCN(c3ccc(C(=O)NS(=O)(=O)c4cc5c(c([N+](=O)[O-])c4)N[C@H](Cc4ccccc4Cl)CO5)c(Oc4cnc5[nH]ccc5c4)c3)CC2)=C(c2ccc(Cl)cc2)C1` [Example 2-159, (R)-2-((1H-pyrrolo[2,3-b]pyridin-5-yl)oxy)-4-(4-((4′-chloro-5,5-dimethyl-3,4,5,6-tetra-hydro-[1,1′-biphenyl]-2-yl)methyl)piperazin-1-yl)-N-((3-(2-chlorobenzyl)-5-nitro-3,4-dihydro-2H-benzo[b][1,4]oxazin-7-yl)sulfo-nyl)benzamide], the IC50 in assay [1] amounted to 47 nM; in assay [2], 29 nM.
Take `CC1(C)CCC(CN2CCN(c3ccc(C(=O)NS(=O)(=O)c4cc5c(c([N+](=O)[O-])c4)N[C@H](Cc4ccc(Cl)cc4)CO5)c(Oc4cnc5[nH]ccc5c4)c3)CC2)=C(c2ccc(Cl)cc2)C1` [Example 2-160, (R)-2-((1H-pyrrolo[2,3-b]pyridin-5-yl)oxy)-4-(4-((4′-chloro-5,5-dimethyl-3,4,5,6-tetra-hydro-[1,1′-biphenyl]-2-yl)methyl)piperazin-yl)-N-((3-(4-chlorobenzyl)-5-nitro-3,4-dihydro-2H-benzo[b][1,4]oxazin-7-yl)sulfo-nyl)benzamide]: the IC50 in assay [1] was 168 nM; in assay [2] it was 95 nM.
For `COc1ccc(CC2COc3cc(S(=O)(=O)NC(=O)c4ccc(N5CCN(CC6=C(c7ccc(Cl)cc7)CC(C)(C)CC6)CC5)cc4Oc4cnc5[nH]ccc5c4)cc([N+](=O)[O-])c3N2)nc1` (stereo not drawn) [Example 2-161, 2-((1H-pyrrolo[2,3-b]pyridin-5-yl)oxy)-4-(4-((4′-chloro-5,5-dimethyl-3,4,5,6-tetrahydro-[1,1′-biphenyl]-2-yl)methyl)piperazin-1-yl)-N-((3-((5-methoxypyridin-2-yl)methyl)-5-nitro-3,4-dihydro-2H-benzo[b][1,4]oxa-zin-7-yl)sulfonyl)benzamide], in that order: 20 nM and 17 nM.
For `COc1ccc(C[C@H]2COc3cc(S(=O)(=O)NC(=O)c4ccc(N5CCN(CC6=C(c7ccc(Cl)cc7)CC(C)(C)CC6)CC5)cc4Oc4cnc5[nH]ccc5c4)cc([N+](=O)[O-])c3N2)nc1` [Example 2-162, (S)-2-((1H-pyrrolo[2,3-b]pyridin-5-yl)oxy)-4-(4-((4′-chloro-5,5-dimethyl-3,4,5,6-tetra-hydro-[1,1′-biphenyl]-2-yl)methyl)piperazin-1-yl)-N-((3-((5-methoxypyridin-2-yl)meth-yl)-5-nitro-3,4-dihydro-2H-benzo[b][1,4]oxain-7-yl)sulfonyl)benzamide], in that order: 325 nM and 43 nM.
For `CC1(C)CCC(CN2CCN(c3ccc(C(=O)NS(=O)(=O)c4cc5c(c([N+](=O)[O-])c4)N[C@@H](Cc4cccnc4)CO5)c(Oc4cnc5[nH]ccc5c4)c3)CC2)=C(c2ccc(Cl)cc2)C1` [Example 2-163, (S)-2-((1H-pyrrolo[2,3-b]pyridin-5-yl)oxy)-4-(4-((4′-chloro-5,5-dimethyl-3,4,5,6-tetra-hydro-[1,1′-biphenyl]-2-yl)methyl)piperazin-1-yl)-N-((5-nitro-3-(pyridin-3-ylmethyl)-3,4-dihydro-2H-benzo[b][1,4]oxazin-7-yl)sulfonyl)benzamide], in that order: 53 nM and 29 nM.
Consider `CC1(C)CCC(CN2CCN(c3ccc(C(=O)NS(=O)(=O)c4cc5c(c([N+](=O)[O-])c4)N[C@@H](Cc4ccncc4)CO5)c(Oc4cnc5[nH]ccc5c4)c3)CC2)=C(c2ccc(Cl)cc2)C1` [Example 2-164], for which the IC50 in assay [1] turned out to be 16 nM; in assay [2], 34 nM.
Regarding `CC1(C)CCC(CN2CCN(c3ccc(C(=O)NS(=O)(=O)c4cc5c(c([N+](=O)[O-])c4)N[C@H](c4ccc(F)cc4)CO5)c(Oc4cnc5[nH]ccc5c4)c3)CC2)=C(c2ccc(Cl)cc2)C1` [Example 2-166, (R)-2-((1H-pyrrolo[2,3-b]pyridin-5-yl)oxy)-4-(4-((4′-chloro-5,5-dimethyl-3,4,5,6-tetra-hydro-[1,1′-biphenyl]-2-yl)methyl)piperazin-1-yl)-N-((3-(4-fluorophenyl)-5-nitro-3,4-dihydro-2H-benzo[b][1,4]oxazin-7-yl)sulfo-nyl)benzamide], the figures for the 50% inhibitory concentration (IC50) in assay [1] and in assay [2] were 300 nM and 82 nM, respectively.
For `CC1(C)CCC(CN2CCN(c3ccc(C(=O)NS(=O)(=O)c4cc5c(c([N+](=O)[O-])c4)N[C@@H](c4ccc(S(C)(=O)=O)cc4)CO5)c(Oc4cnc5[nH]ccc5c4)c3)CC2)=C(c2ccc(Cl)cc2)C1` [Example 2-168, (S)-2-((1H-pyrrolo[2,3-b]pyridin-5-yl)oxy)-4-(4-((4′-chloro-5,5-dimethyl-3,4,5,6-tetra-hydro-[1,1′-biphenyl]-2-yl)methyl)piperazin-1-yl)-N-((3-(4-(methylsulfonyl)phenyl)-5-nitro-3,4-dihydro-2H-benzo[b][1,4]oxazin-7-yl)sulfonyl)benzamide], in that order: 32 nM and 33 nM.
For `CC1(C)CCC(CN2CCN(c3ccc(C(=O)NS(=O)(=O)c4cc5c(c([N+](=O)[O-])c4)N[C@H](c4ccc(S(C)(=O)=O)cc4)CO5)c(Oc4cnc5[nH]ccc5c4)c3)CC2)=C(c2ccc(Cl)cc2)C1` [Example 2-175, (R)-2-((1H-pyrrolo[2,3-b]pyridin-5-yl)oxy)-4-(4-((4′-chloro-5,5-dimethyl-3,4,5,6-tetra-hydro-[1,1′-biphenyl]-2-yl)methyl)piperazin-1-yl)-N-((3-(4-(methylsulfonyl)phenyl)-5-nitro-3,4-dihydro-2H-benzo[b][1,4]oxazin-7-yl)sulfonyl)benzamide], in that order: 139 nM and 53 nM.

The values are drawn from US11091478B2 (Fochon Pharmaceuticals, Ltd., priority 2017, dated 2021).
